Experimental data reported in PubChem BioAssay (NCI).
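How tested: cells in 96-well plates exposed to compound for 48 hours at five concentrations. Here, GI50 denotes the concentration required for 50% inhibition of growth. TGI is the concentration that stops growth completely.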 Where a SMILES comes first, the peptide text is derived from it. The star is where a group is joined. Cbz = O=C(OCc1ccccc1)*; Boc = CC(C)(C)OC(=O)*; OBn = c1ccc(CO*)cc1

Assays:
Assay in all cases: DTP human tumour cell line panel, 48 h
U251 CNS = system: U251 CNS
SN12C renal = system: SN12C renal
K-562 leukemia = system: K-562 leukemia
SK-MEL-2 melanoma = system: SK-MEL-2 melanoma
PC-3 prostate = system: PC-3 prostate
SK-OV-3 ovarian = system: SK-OV-3 ovarian
CAKI-1 renal = system: CAKI-1 renal
MDA-N = system: MDA-N
BT-549 breast = system: BT-549 breast
A498 renal = system: A498 renal

Structure (SMILES)	TGI (U251 CNS) [µM]	TGI (SN12C renal) [µM]	TGI (K-562 leukemia) [µM]	TGI (SK-MEL-2 melanoma) [µM]	TGI (PC-3 prostate) [µM]	TGI (SK-OV-3 ovarian) [µM]	TGI (CAKI-1 renal) [µM]	TGI (MDA-N) [µM]	TGI (BT-549 breast) [µM]	TGI (A498 renal) [µM]	GI50 (U251 CNS) [µM]	GI50 (SN12C renal) [µM]	GI50 (K-562 leukemia) [µM]	GI50 (SK-MEL-2 melanoma) [µM]	GI50 (A498 renal) [µM]	GI50 (PC-3 prostate) [µM]	GI50 (SK-OV-3 ovarian) [µM]	GI50 (BT-549 breast) [µM]	GI50 (CAKI-1 renal) [µM]
O=c1[nH]c(=O)n(Cc2ccccc2CO)cc1Sc1ccccc1	> 100	> 100	> 100	45.8	> 100	> 100	27.2	–	–	–	–	–	–	–	–	–	–	–	–
CCCCCCCCCCCCCCCCCCNc1ccn(C2OC(COP(=O)(O)OCC3OC(n4cc(C)c(=O)[nH]c4=O)CC3N=[N+]=[N-])C(O)C2O)c(=O)n1 (stereo not given)	36.2	48.1	50.3	39.8	22.5	40.3	58.6	> 100	49.2	–	–	–	–	–	–	–	–	–	–
CCCCc1ccc(Nc2ncc3[nH]cnc3n2)cc1	60.4	48.9	> 100	53.3	–	38.1	36.4	> 100	52.8	45.4	–	–	–	–	–	–	–	–	–
O=C(c1ccccc1)c1ccc2nc(-c3c(Cl)c(Cl)c(Cl)c(Cl)c3C(=O)N/N=C/c3ccccc3)[nH]c2c1	> 100	60.8	> 100	67.5	> 100	> 100	> 100	93.7	> 100	–	–	–	–	–	–	–	–	–	–
C#CC(F)(F)[C@]1(O)CC[C@H]2[C@@H]3CCC4=CC(=O)CCC4=C3[C@@H](c3ccc(C(C)=O)cc3)C[C@@]21C	> 92.9	> 95.3	> 100	32.8	97.9	> 100	–	–	55.2	84.8	17.7	25.1	8.64	13.2	23.1	10	20.7	15.5	–
CCOC(=O)CNC(=O)C(C)NC(=O)C(NC(=O)CC(c1ncc[nH]1)c1ncc[nH]1)C(C)CC (stereo not given)	> 100	> 100	> 100	> 100	–	> 100	> 100	> 100	–	> 100	–	–	–	–	–	–	–	–	–
O=C1C(Br)=CC2(C=C1Br)CCNC1=C2C(=O)c2cccnc2C1=O	35.6	25.1	6.84	10.9	39.7	31.8	32.3	3.46	–	–	–	–	–	–	–	–	–	–	–
O=C1/C(=C/c2ccccc2[N+](=O)[O-])N=C(c2ccccc2)N1C1Nc2cc3c(cc2S1)NC(N1C(=O)/C(=C/c2ccccc2[N+](=O)[O-])N=C1c1ccccc1)S3 (stereo not given)	> 100	–	> 100	> 100	> 100	–	> 100	> 100	> 100	> 100	–	–	–	–	–	–	–	–	–
Cc1cn(CC2=NCC(C)(C)N2)c(=O)[nH]c1=O	> 100	> 100	> 100	> 100	> 100	> 100	–	> 100	> 100	> 100	–	–	–	–	–	–	–	–	–
COC(=O)/C=C/c1cc(O)c2c(c1)[C@H](C(=O)OC)[C@@H](c1ccc(O)c(O)c1)O2	> 100	> 74.1	–	> 70	> 100	> 79.8	> 100	–	30.3	> 28	–	–	–	–	–	–	–	–	–
C=C(C)C(=O)[C@@]12C(=O)[C@@H](C)CC[C@H]1[C@H](C)C[C@@H]2C=C(C)C	49.6	40.7	> 100	26.7	59.4	> 100	99.5	59.1	–	> 100	–	–	–	–	–	–	–	–	–
Fc1ccc(N=NN2CCCC2)cc1	> 100	> 100	> 100	> 100	–	> 100	> 100	> 100	> 100	> 100	–	–	–	–	–	–	–	–	–
CCCCOP1(=O)C=C(C)C(=C(Cl)Cl)C(C)=C1 (stereo not given)	22.4	34.8	> 100	5.11	–	49.8	27.8	–	–	–	–	–	–	–	–	–	–	–	–
CNC(=O)c1cc(NC(=O)N(CCC#N)CCN(C(=O)N[C@@H](Cc2ccccc2)C(=O)N[C@@H](CC(C)C)C(=O)NC)c2ccccc2)ccc1OC	> 100	> 85.1	–	> 74.5	> 100	> 100	> 100	> 100	> 100	> 91.5	–	–	–	–	–	–	–	–	–
CC(NC(=O)C(NC(=O)OC(C)(C)C)C(C)C)C(=O)N1CCCC1C(=O)NCC(=O)NC(C(=O)NCC(=O)OCc1ccccc1)C(C)C (stereo not given) (Boc-VAPGVG-OBn; configuration not given here)	> 100	> 100	> 100	> 100	> 100	> 100	> 100	> 100	–	> 100	–	–	–	–	–	–	–	–	–
O=C1C=C(Br)c2c(Br)sc(Br)c21	41.3	38.3	> 36.7	49.3	26.4	64.3	26.6	> 52	17	–	–	–	–	–	–	–	–	–	–
CC(=O)O[C@]12CCCC1C1(O)C(O)CCCC12 (stereo not given in full)	> 100	> 100	> 100	> 100	–	> 100	–	–	–	–	–	–	–	–	–	–	–	–	–
COc1ccc2c(c1)n([O-])c(C#N)c(N1CCN(c3ccc([N+](=O)[O-])cc3)CC1)[n+]2=O	> 100	> 100	> 100	> 100	> 100	> 59.5	> 100	> 100	> 76.7	–	–	–	–	–	–	–	–	–	–
CN(C)CCSC(=Nc1ccccc1)N1CCCCC1	> 100	32.6	> 100	31.3	–	> 100	> 100	–	–	–	–	–	–	–	–	–	–	–	–
O=[Se](=O)c1ccccc1.O=[Se](=O)c1ccccc1.[Cu]	30.9	29.5	47.4	33.5	–	42.1	38.9	–	–	38	17.1	15.8	13.4	18.8	20.1	–	27.3	–	22.8
Cc1cccc(NC(=O)C(=O)C(C(=O)c2ccccc2F)C2OC(=O)c3ccccc32)c1Cl (stereo not given)	36	> 100	> 100	> 100	–	> 100	> 100	–	–	> 100	–	–	–	–	–	–	–	–	–
CCOC(=O)C(=Cc1ccc(C(=O)OC)cc1)C(=O)OCC	4.77	5	> 100	3.37	–	26.4	3.35	–	–	26	–	–	–	–	–	–	–	–	–
Cc1cccc(C2=NC(C)(C)C(C)(C)N=C2c2cccc(C)n2)n1	> 100	–	> 100	> 100	–	> 100	> 100	–	–	> 100	–	–	–	–	–	–	–	–	–
Oc1[nH]c2ccccc2c1N=Nc1nc(-c2ccc(Cl)c(Cl)c2)cs1	> 100	> 100	–	> 100	> 100	> 100	> 100	> 100	–	–	–	–	–	–	–	–	–	–	–

Structure (SMILES)	TGI (U251 CNS) [µM]	TGI (SN12C renal) [µM]	TGI (K-562 leukemia) [µM]	TGI (SK-MEL-2 melanoma) [µM]	TGI (PC-3 prostate) [µM]	TGI (SK-OV-3 ovarian) [µM]	TGI (CAKI-1 renal) [µM]	TGI (MDA-N) [µM]	TGI (BT-549 breast) [µM]	TGI (A498 renal) [µM]	GI50 (U251 CNS) [µM]	GI50 (SN12C renal) [µM]	GI50 (K-562 leukemia) [µM]	GI50 (SK-MEL-2 melanoma) [µM]	GI50 (A498 renal) [µM]	GI50 (PC-3 prostate) [µM]	GI50 (SK-OV-3 ovarian) [µM]	GI50 (BT-549 breast) [µM]	GI50 (CAKI-1 renal) [µM]
[N-]=[N+]=NCc1cccc(Nc2cc(=O)[nH]c(=O)[nH]2)c1	–	> 100	> 100	> 100	–	> 100	> 100	> 100	> 100	> 100	–	–	–	–	–	–	–	–	–
N#Cc1c(N2CCCC2)ncn(Cc2ccccc2)c1=O	> 100	> 100	> 100	> 100	> 100	> 100	–	> 100	> 100	> 100	–	–	–	–	–	–	–	–	–
C/C(=N\NC(N)=S)C(CN(CC(C)C)CC(C)C)C(=O)Nc1ccc(C)cc1C (stereo not given)	> 100	> 100	> 100	> 100	–	> 100	> 100	–	–	> 100	–	–	–	–	–	–	–	–	–
COc1cccc(Cc2c3cc(OC)ccc3cc[n+]2C)c1	> 100	> 100	> 100	> 100	–	–	> 100	–	–	> 100	–	–	–	–	–	–	–	–	–
c1ccc2c(c1)nc(NC1CCCC1)c1[nH]c(C3CCCC3)nc12	13.3	> 83.9	41.4	19.1	–	> 62.5	–	–	–	43.1	–	–	–	–	–	–	–	–	–
COc1ccc(-c2c(N)n(-c3cccc(C(=O)O)c3)c(=O)c3cc([N+](=O)[O-])ccc23)cc1	> 100	–	> 100	> 100	> 100	> 100	> 100	> 100	> 100	> 100	–	–	–	–	–	–	–	–	–
CCOc1nc(-c2ccccc2)cc(-c2ccc(N3CCOCC3)cc2)c1C#N	> 100	> 100	> 100	> 100	> 100	–	> 100	> 100	> 100	> 100	–	–	–	–	–	–	–	–	–
COC(=O)C(Cc1ccc(O)cc1)NC(=O)C(CC(=O)OCc1ccccc1)NC(=O)OCc1ccccc1 (stereo not given) (Cbz-Asp(OBn)-Tyr-OMe; configuration not given here)	35	39.3	> 100	34.8	31.6	–	–	35.7	37.4	62.4	–	–	–	–	–	–	–	–	–
COC(=O)c1cc(C#N)[nH]c1-c1ccc(C)s1	> 100	> 100	> 100	–	46.4	> 100	> 100	> 100	> 100	68.1	–	–	–	–	–	–	–	–	–
O=C(OCc1ccccc1)C1(N2CN(C3(C(=O)OCc4ccccc4)CCCC3)CN(C3(C(=O)OCc4ccccc4)CCCC3)C2)CCCC1	> 10	> 10	> 10	> 10	> 10	> 10	> 10	> 10	> 10	–	–	–	–	–	–	–	–	–	–
CCOC(=O)/C=C(\C(=O)OCC)n1ccc(N)nc1=O	> 100	> 100	> 100	> 100	> 100	> 100	> 100	> 100	> 100	–	–	–	–	–	–	–	–	–	–
OC1(c2cc3ccccc3s2)CCCCC1	> 100	> 100	> 100	–	–	> 100	> 100	> 100	> 100	> 100	–	–	–	–	–	–	–	–	–
CN(NC(=O)CCCl)C1=NCCCCN1	> 100	> 100	> 100	> 100	> 100	> 100	–	> 100	> 100	> 100	–	–	–	–	–	–	–	–	–
c1ccc2c(c1)CCc1cc3cc4c(nc3nc1-2)-c1ccccc1CC4	> 100	> 100	> 100	–	–	> 100	–	–	–	–	–	–	–	–	–	–	–	–	–
NCCNc1cccc2ccccc12	> 100	> 100	–	> 100	–	> 100	> 100	–	–	> 100	–	–	–	–	–	–	–	–	–
Oc1ccc(SCc2cc(O)c(O)c(O)c2)cc1	> 100	74.9	> 100	> 100	> 100	> 100	> 100	–	85.9	> 100	–	–	–	–	–	–	–	–	–
C=CCNC(=O)NC1=CSC2=NC(=O)C3(NN12)c1ccccc1-c1ccccc13	–	> 10	> 10	–	> 10	> 10	> 10	–	> 10	–	–	–	–	–	–	–	–	–	–
CC(C)c1ccc(/C=C2\CSCC3=C2NC(=S)NC3c2ccc(C(C)C)cc2)cc1 (stereo not given)	> 100	> 100	> 100	> 100	> 100	> 100	> 100	> 100	> 100	–	–	–	–	–	–	–	–	–	–
O=c1[nH]nc(-c2ccccc2)n1/N=C/c1c(O)ccc2ccccc12	86.4	> 100	> 100	> 100	> 100	68.4	–	> 100	> 100	–	–	–	–	–	–	–	–	–	–
O=C(CCCCCCCCC(=O)N1C(=O)CC(=O)N(c2cccc(Cl)c2)C1=S)N1C(=O)CC(=O)N(c2cccc(Cl)c2)C1=S	> 100	> 100	–	> 100	91.2	> 100	> 100	> 100	> 100	> 100	–	–	–	–	–	–	–	–	–
COc1cccc(N(CN2CC=CC2=O)C(C)=O)c1	> 100	> 100	> 100	> 100	> 100	> 100	> 100	> 100	–	> 100	–	–	–	–	–	–	–	–	–
Cc1ccc(N2CCc3c(C)c(C#N)c4nc5ccccc5n4c32)cc1	> 100	> 100	–	> 100	> 100	> 100	> 100	–	> 100	–	–	–	–	–	–	–	–	–	–
O=C1Cc2c([nH]c3ccc(Br)cc23)-c2ccccc2N1	> 100	> 100	> 100	> 100	> 100	> 100	> 100	> 100	–	> 100	–	–	–	–	–	–	–	–	–
